This is an account of results in patent US12391697B2, “Condensed bi-heterocycles as inhibiting agents for Bruton's tyrosine kinase” (BIOGEN MA INC., priority 2019, dated 2025).

Assay [1] relates to CD69 expression on CD19+ B cells in whole blood. Kind of assay: In Vitro Whole Blood CD69 Assay. Format: cell-based, Human. How it is done: In Vitro Whole Blood CD69 Assay
Human heparinized venous blood from health donors was aliquoted into 96-well plate and “spiked” with serial dilutions of formula I compounds in DMSO or with DMSO without drug. The final concentration of DMSO in all wells was 0.1%. The plate was incubated at 37° C. for 30 min. Drug-containing samples were stimulated with 0.1 μg/mL mouse anti-human IgD-dextran (1A62) or 20 μg/mL polyclonal rabbit F(ab′)2 anti-human IgD. Phosphate-buffered saline (PBS) was added to the negative control unstimulated sample and the plates were incubated overnight (18 to 22 hours) at 37° C. Cells were stained with fluorochrome-conjugated anti-CD19 and anti-CD69 antibodies. Lyse/fix solution was used to remove red blood cells by hypotonic lysis and to fix the remaining cells, which were then analyzed by flow cytometry. CD19+ B cells were gated and analyzed for CD69 expression. The percentage of B cells expressing CD69 was plotted versus the log 10 of the concentration of the drug and the best-fit curves (variable Hill slope) were generated to obtain the IC50 value.

The target in the next assay is BTK (Homo sapiens (Human), UniProt Q06187). Kind of assay: In Vitro BTK Kinase Assay: Btk-PolyGAT-LS Assay. Format: biochemical. The note with it: active BTK enzyme 0.25 nM, ATP 10 μM, polyGAT 100 nM, 30 minutes. The essentials: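 Recombinant BTK (0.25 nM) phosphorylating 100 nM polyGAT at 10 μM ATP in Tris-HCl pH 7.5 buffer with MgCl2, DTT, Triton X-100 and casein, 30 min, then EDTA stop.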

The mark [2] stands for this setting: Homo sapiens, B-cell, human heparinized whole blood, anti-human IgD stimulation, percentage of CD19+ B cells expressing CD69, read-out: IC50.

What is called IC50 is the point on the concentration scale where inhibition reaches its midpoint.

Structures are written as SMILES. Where a name gives a salt, the structure may show the parent alone. Read-outs that look alike come from different tables or passages of the source.

Sequence of BTK (Q06187 whole entry): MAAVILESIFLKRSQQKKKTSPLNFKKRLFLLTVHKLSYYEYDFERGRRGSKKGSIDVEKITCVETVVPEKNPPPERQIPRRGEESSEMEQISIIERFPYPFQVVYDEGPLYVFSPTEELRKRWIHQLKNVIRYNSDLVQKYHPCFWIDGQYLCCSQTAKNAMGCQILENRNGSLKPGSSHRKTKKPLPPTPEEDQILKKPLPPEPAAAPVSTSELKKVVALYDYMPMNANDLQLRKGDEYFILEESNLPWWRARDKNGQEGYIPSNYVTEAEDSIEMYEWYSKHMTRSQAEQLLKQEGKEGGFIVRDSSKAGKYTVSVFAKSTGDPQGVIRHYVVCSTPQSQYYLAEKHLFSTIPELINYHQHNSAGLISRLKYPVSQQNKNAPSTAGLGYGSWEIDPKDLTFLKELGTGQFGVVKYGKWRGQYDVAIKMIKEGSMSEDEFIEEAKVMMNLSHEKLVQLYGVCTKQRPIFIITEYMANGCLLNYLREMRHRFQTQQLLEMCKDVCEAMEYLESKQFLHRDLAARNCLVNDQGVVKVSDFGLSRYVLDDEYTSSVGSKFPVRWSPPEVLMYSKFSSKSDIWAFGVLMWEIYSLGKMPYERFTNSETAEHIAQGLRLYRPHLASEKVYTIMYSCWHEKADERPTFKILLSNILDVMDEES

As for `Cc1cc(-c2ncnn3cc(N4CCC(F)C4)cc23)ccc1CNC(=O)c1noc(C(C)(C)C)n1` (centres unmarked) [Example 11, 5-(tert-butyl)-N-(4-(6-(3-fluoropyrrolidin-1-yl)pyrrolo[2,1-f][1,2,4]triazin-4-yl)-2-methylbenzyl)-1,2,4-oxadiazole-3-carboxamide trifluoroacetate], the half-inhibitory concentration (IC50) is 100 to 1000 nM in assay [1] (setting [2]) and not above 1 nM against BTK.

As to `Cc1cc(-c2ncnn3cc(N4CCOCC4)cc23)ccc1CNC(=O)c1noc(C(C)(C)C)n1` [Example 5, 5-(tert-butyl)-N-(2-methyl-4-(6-morpholinopyrrolo[2,1-f][1,2,4]triazin-4-yl)benzyl)-1,2,4-oxadiazole-3-carboxamide trifluoroacetate], the concentration for half-maximal inhibition (IC50) in assay [1] (setting [2]) is 100 to 1000 nM; at BTK it was not above 1 nM.

Turning to `Cc1cc(-c2ncnn3cc(N4C[C@@H](C)O[C@@H](C)C4)cc23)ccc1CNC(=O)c1noc(C(C)(C)C)n1` [Example 39, 5-(tert-butyl)-N-(4-(6-((2,6-syn)-2,6-dimethylmorpholino)pyrrolo[2,1-f][1,2,4]triazin-4-yl)-2-methylbenzyl)-1,2,4-oxadiazole-3-carboxamide], the half-inhibitory concentration (IC50) in assay [1] (setting [2]) was 100 to 1000 nM; at BTK it was not above 1 nM.

As for `Cn1cc(-c2cc3c(-c4ccc(CNC(=O)c5noc(C(C)(C)C)n5)c(C(F)F)c4F)ncnn3c2)cn1` [Example 36, 5-(tert-butyl)-N-(2-(difluoromethyl)-3-fluoro-4-(6-(1-methyl-1H-pyrazol-4-yl)pyrrolo[2,1-f][1,2,4]triazin-4-yl)benzyl)-1,2,4-oxadiazole-3-carboxamide hydrochloride], the IC50 in assay [1] (setting [2]) is 100 to 1000 nM; against BTK, not above 1 nM.

For `Cc1cc(-c2ncnn3cc(-c4ccncc4)cc23)ccc1CNC(=O)c1noc(C(C)(C)C)n1` [Example 38, 5-(tert-butyl)-N-(2-methyl-4-(6-(pyridin-4-yl)pyrrolo[2,1-f][1,2,4]triazin-4-yl)benzyl)-1,2,4-oxadiazole-3-carboxamide], the figures for the IC50 (in assay [1] (setting [2]); on BTK) were 100 to 1000 nM and not above 1 nM, respectively.

Take `Cc1cc(-c2ncnn3cc(C4=CCOCC4)cc23)ccc1CNC(=O)c1noc(C(C)(C)C)n1` [Example 6, 5-(tert-butyl)-N-(4-(6-(3,6-dihydro-2H-pyran-4-yl)pyrrolo[2,1-f][1,2,4]triazin-4-yl)-2-methylbenzyl)-1,2,4-oxadiazole-3-carboxamide]: the IC50 in assay [1] (setting [2]) is 100 to 1000 nM; in assay [1] (human heparinized whole blood, anti-human IgD stimulation, percentage of CD19+ B cells expressing CD69, read-out: IC50), less than 100 nM; on BTK, not above 1 nM.

As to `Cc1c(CNC(=O)c2noc(C(C)(C)CF)n2)ccc(-c2ncnn3cc(-c4cnn(C)c4)cc23)c1F` [Example 33, N-(3-fluoro-2-methyl-4-(6-(1-methyl-1H-pyrazol-4-yl)pyrrolo[2,1-f][1,2,4]triazin-4-yl)benzyl)-5-(1-fluoro-2-methylpropan-2-yl)-1,2,4-oxadiazole-3-carboxamide], the half-maximal inhibitory concentration (IC50) in assay [1] (setting [2]) is 100 to 1000 nM; against BTK it was not above 1 nM.

In the case of `Cc1cc(-c2ncnn3cc(N4CCN(C)[C@@H](C)C4)cc23)ccc1CNC(=O)c1nc(C(C)(C)C)no1` (single isomer, unassigned) [Example 28], the concentration for half-maximal inhibition (IC50) in assay [1] (setting [2]) is 100 to 1000 nM; at BTK, not above 1 nM.

With `COC1CN(c2cc3c(-c4ccc(CNC(=O)c5noc(C(C)(C)C)n5)c(C)c4)ncnn3c2)C1` [Example 8, 5-(tert-butyl)-N-(4-(6-(3-methoxyazetidin-1-yl)pyrrolo[2,1-f][1,2,4]triazin-4-yl)-2-methylbenzyl)-1,2,4-oxadiazole-3-carboxamide], the half-inhibitory concentration (IC50) in assay [1] (setting [2]) was 100 to 1000 nM; against BTK it was not above 1 nM.

In the case of `CC(C)(C)c1nc(C(=O)NCc2ccc(-c3ncnn4cc(N5CCOCC5)cc34)cc2C2CC2)no1` [Example 37, 5-(tert-butyl)-N-(2-cyclopropyl-4-(6-morpholinopyrrolo[2,1-f][1,2,4]triazin-4-yl)benzyl)-1,2,4-oxadiazole-3-carboxamide], the IC50 in assay [1] (setting [2]) is more than 1000 nM; against BTK, not above 1 nM.

`CC(C)(C)c1nc(C(=O)NCc2cc(F)c(-c3ncnn4cc(N5CCOCC5)cc34)cc2Cl)no1` [Example 1, 5-tert-butyl-N-[[2-chloro-5-fluoro-4-(6-morpholinopyrrolo[2,1-f][1,2,4]triazin-4-yl)phenyl]methyl]-1,2,4-oxadiazole-3-carboxamide]: the IC50 in assay [1] (setting [2]) was more than 1000 nM; at BTK it was not above 1 nM.

On to `Cc1c(CNC(=O)c2nc(C(C)(C)C)no2)ccc(-c2ncnn3cc(N4CCOCC4)cc23)c1F` [Example 2, 3-(tert-butyl)-N-(3-fluoro-2-methyl-4-(6-morpholinopyrrolo[2,1-f][1,2,4]triazin-4-yl)benzyl)-1,2,4-oxadiazole-5-carboxamide], for which the results for the IC50 (in assay [1] (setting [2]); at BTK) were 100 to 1000 nM and not above 1 nM, respectively.

Turning to `COCCOc1cc2c(-c3ccc(CNC(=O)c4noc(C(C)(C)C)n4)c(C)c3)ncnn2c1` [Example 58, 5-(tert-butyl)-N-(4-(6-(2-methoxyethoxy)pyrrolo[2,1-f][1,2,4]triazin-4-yl)-2-methylbenzyl)-1,2,4-oxadiazole-3-carboxamide], the concentration for half-maximal inhibition (IC50) is less than 100 nM in assay [1] (setting [2]) and not above 1 nM at BTK.

With `CC(C)(C)c1nc(C(=O)NCc2ccc(-c3ncnn4cc(N5CCOCC5)cc34)cc2C(F)(F)F)no1` [Example 34, 5-(tert-butyl)-N-(4-(6-morpholinopyrrolo[2,1-f][1,2,4]triazin-4-yl)-2-(trifluoromethyl)benzyl)-1,2,4-oxadiazole-3-carboxamide hydrochloride], the IC50 is 100 to 1000 nM in assay [1] (setting [2]) and not above 1 nM against BTK.

Consider `Cc1cc(-c2ncnn3cc(N4CCC(F)(F)C4)cc23)ccc1CNC(=O)c1noc(C(C)(C)C)n1` [Example 12, 5-(tert-butyl)-N-(4-(6-(3,3-difluoropyrrolidin-1-yl)pyrrolo[2,1-f][1,2,4]triazin-4-yl)-2-methylbenzyl)-1,2,4-oxadiazole-3-carboxamide trifluoroacetate], for which the IC50 is 100 to 1000 nM in assay [1] (setting [2]) and not above 1 nM against BTK.

As for `Cc1cc(-c2ncnn3cc(-c4cnn(CC(F)F)c4)cc23)ccc1CNC(=O)c1noc(C(C)(C)C)n1` [Example 10, 5-(tert-butyl)-N-(4-(6-(1-(2,2-difluoroethyl)-1H-pyrazol-4-yl)pyrrolo[2,1-f][1,2,4]triazin-4-yl)-2-methylbenzyl)-1,2,4-oxadiazole-3-carboxamide trifluoroacetate], the half-maximal inhibitory concentration (IC50) in assay [1] (setting [2]) is 100 to 1000 nM; against BTK, not above 1 nM.

As to `Cc1cc(-c2ncnn3cc(-c4ccn(C)n4)cc23)ccc1CNC(=O)c1noc(C(C)(C)C)n1` [Example 9, 5-(tert-butyl)-N-(2-methyl-4-(6-(1-methyl-1H-pyrazol-3-yl)pyrrolo[2,1-f][1,2,4]triazin-4-yl)benzyl)-1,2,4-oxadiazole-3-carboxamide trifluoroacetate], the IC50 in assay [1] (setting [2]) was 100 to 1000 nM; against BTK, not above 1 nM.

As to `CC(C)(C)c1nc(C(=O)NCc2ccc(-c3ncnn4cc(N5CCOCC5)cc34)cc2Cl)no1` [Example 15, 5-(tert-butyl)-N-(2-chloro-4-(6-morpholinopyrrolo[2,1-f][1,2,4]triazin-4-yl)benzyl)-1,2,4-oxadiazole-3-carboxamide trifluoroacetate], the results for the half-inhibitory concentration (IC50) (in assay [1] (setting [2]); against BTK) were 100 to 1000 nM and not above 1 nM, respectively.

In the case of `Cc1c([C@@H](C)NC(=O)c2noc(C(C)(C)C)n2)ccc(-c2ncnn3cc(N4CCOCC4)cc23)c1F` [Example 31, (R)-5-(tert-butyl)-N-(1-(3-fluoro-2-methyl-4-(6-morpholinopyrrolo[2,1-f][1,2,4]triazin-4-yl)phenyl)ethyl)-1,2,4-oxadiazole-3-carboxamide], the IC50 in assay [1] (setting [2]) was 100 to 1000 nM; against BTK it was not above 1 nM.

Consider `CC(C)(C)c1nc(C(=O)N[C@@H]2CCCCc3c2ccc(-c2ncnn4cccc24)c3F)no1` [Example 56, (R)-5-(tert-butyl)-N-(1-fluoro-2-(pyrrolo[2,1-f][1,2,4]triazin-4-yl)-6,7,8,9-tetrahydro-5H-benzo[7]annulen-5-yl)-1,2,4-oxadiazole-3-carboxamide hydrochloride], for which the IC50 is 100 to 1000 nM in assay [1] (setting [2]) and not above 1 nM against BTK.

On to `Cc1cc(-c2ncnn3cc(N4C[C@H](C)O[C@@H](C)C4)cc23)ccc1CNC(=O)c1noc(C(C)(C)C)n1` (single isomer, unassigned) [Example 44, hydrochloride], for which the IC50 in assay [1] (setting [2]) was 100 to 1000 nM; against BTK, not above 1 nM.

As for `CC(C)(C)c1noc(C(=O)NCc2ccc(-c3ncnn4cc(N5CCOCC5)cc34)c(F)c2Cl)n1` [Example 14, 3-(tert-butyl)-N-(2-chloro-3-fluoro-4-(6-morpholinopyrrolo[2,1-f][1,2,4]triazin-4-yl)benzyl)-1,2,4-oxadiazole-5-carboxamide trifluoroacetate], the IC50 in assay [1] (Homo sapiens, B-cell) is 100 to 1000 nM; against BTK, not above 1 nM.

With `COCCn1cc(-c2cc3c(-c4ccc(CNC(=O)c5noc(C(C)(C)C)n5)c(C)c4)ncnn3c2)cn1` [Example 7, 5-(tert-butyl)-N-(4-(6-(1-(2-methoxyethyl)-1H-pyrazol-4-yl)pyrrolo[2,1-f][1,2,4]triazin-4-yl)-2-methylbenzyl)-1,2,4-oxadiazole-3-carboxamide], the IC50 in assay [1] (setting [2]) was less than 100 nM; on BTK, not above 1 nM.
